These results are taken from ChEMBL document CHEMBL1201862, “PubChem BioAssay data set” (2004).

SMILES strings stand for the structures.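 In this assay, cells in 96-well plates receive the compound at five concentrations for 48 hours. Endpoints are linearly interpolated between the surrounding concentrations. GI50 marks 50% less growth.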 Activity calls are given as the source filed them. No stated cut-off is given here; in the data, active = GI50 up to about 1.1 µM and inactive = higher.

Among the test systems are 786-0; A498; ACHN; COLO 205; DU-145; HL-60; K562; KM12; MCF7; MDA-MB-231; NCI-H23; OVCAR-8; PC-3; RXF 393; SF-295; SK-MEL-2; SK-MEL-5; SN12C; UO-31; CAKI-1.
What all share (assay): growth of human tumour cells (NCI), 48 h

Consider `C=CC(Br)(CBr)CCC(Br)C(C)(C)Cl` (stereo not given), for which the GI50 is 2.35 µM (inactive) in the assay on 786-0; 5.16 µM (inactive) in the assay on A498; 2.42 µM (inactive) with ACHN; 2.21 µM (inactive) in the assay on COLO 205; 3.37 µM (inactive) in the assay with DU-145; 0.807 µM (active) in the assay with HL-60. The GI50 in the assay on K562 was 1.75 µM (inactive); with KM12, 1.6 µM (inactive); in the assay with MCF7, 1.83 µM (inactive); with MDA-MB-231 it was 2.49 µM (inactive); in the assay with NCI-H23, 6.31 µM (inactive); in the assay on OVCAR-8 it was 4.42 µM (inactive). The GI50 in the assay with PC-3 was 3.27 µM (inactive); in the assay with RXF 393, 2.99 µM (inactive); in the assay on SF-295, 1.82 µM (inactive); in the assay with SK-MEL-2, 8.73 µM (inactive); with SK-MEL-5, 7.76 µM (inactive); in the assay with SN12C it was 5.48 µM (inactive). In addition, in the assay on UO-31, the GI50 was 1.65 µM (inactive).
In the case of `C[C@]12CC[C@@H]3c4ccc(O)cc4CC[C@H]3[C@@H]1C/C(=C\c1ccc([N+](=O)[O-])cc1)C2=O`, the GI50 in the assay with 786-0 was > 100 µM (inactive); with A498 it was > 100 µM (inactive); with ACHN, 61.4 µM (inactive); with CAKI-1, > 100 µM (inactive); with COLO 205 it was > 100 µM (inactive); with DU-145, 50 µM (inactive). For the same molecule, the GI50 was 99.8 µM (inactive) in the assay with K562; 42.6 µM (inactive) in the assay on KM12; 52.1 µM (inactive) with MCF7; 67.6 µM (inactive) with MDA-MB-231; 78.9 µM (inactive) in the assay on NCI-H23; 34.9 µM (inactive) in the assay on OVCAR-8. Also, the GI50 in the assay on PC-3 is 37.2 µM (inactive); in the assay on RXF 393, 15.9 µM (inactive); in the assay with SF-295 it was > 100 µM (inactive); in the assay with SK-MEL-2 it was 44.6 µM (inactive); with SK-MEL-5, 41.5 µM (inactive); in the assay on SN12C, > 100 µM (inactive). For the same molecule, the GI50 in the assay on UO-31 was 77.1 µM (inactive).
As to `O=C(CNc1ccccc1[N+](=O)[O-])Nn1c(-c2ccccc2)nc2ccccc2c1=O`, the GI50 in the assay with 786-0 was 18.9 µM (inactive); in the assay with A498, 26.2 µM (inactive); in the assay with ACHN, 22.2 µM (inactive); with COLO 205 it was 20.6 µM (inactive); with DU-145 it was 28.7 µM (inactive); in the assay with HL-60, 31.7 µM (inactive). For the same molecule, the GI50 in the assay with K562 was 16.3 µM (inactive); in the assay with KM12 it was > 10 µM (inactive); with MCF7, 19.1 µM (inactive); with MDA-MB-231, 15.7 µM (inactive); with NCI-H23 it was 25.8 µM (inactive); in the assay with OVCAR-8, 33.8 µM (inactive). Besides, the GI50 is 22.2 µM (inactive) in the assay with PC-3; 20.1 µM (inactive) in the assay on RXF 393; 20.6 µM (inactive) in the assay with SF-295; 10.4 µM (inactive) in the assay with SK-MEL-5; 25.8 µM (inactive) in the assay on SN12C; 18.7 µM (inactive) in the assay on UO-31.
In the case of `O=C1C2C=CC1C1C(=O)OC(=O)C21` (stereo not given), the GI50 with 786-0, in the assay on A498, in the assay with ACHN, in the assay with CAKI-1, in the assay on COLO 205 and in the assay on DU-145 was > 100 µM (inactive) in each case. Moreover, the GI50 with HL-60, with K562, in the assay on KM12, in the assay on MCF7, in the assay with MDA-MB-231 and with NCI-H23 was > 100 µM (inactive) throughout. The GI50 with OVCAR-8, in the assay on PC-3, in the assay with SF-295, with SK-MEL-2, with SK-MEL-5 and in the assay on SN12C was > 100 µM (inactive) each time. For the same molecule, the GI50 in the assay on UO-31 is > 100 µM (inactive).
